{"source": "patent EP2919756B1", "about": "“SOLID LIPID NANOPARTICLES OF ROXITHROMYCIN FOR HAIR LOSS OR ACNE” (Gdanski Uniwersytet Medyczny, priority 2012, dated 2014)", "origin": "cited, not measured here", "key": {"human hair follicles": {"system": "human hair follicles", "details": "human hair follicles in vitro"}, "[1]": {"details": "external application of 0.5% solution for 24 weeks"}}, "data": [{"smiles": "CC[C@H]1OC(=O)[C@H](C)[C@@H](O[C@H]2C[C@@](C)(OC)[C@@H](O)[C@H](C)O2)[C@H](C)[C@@H](O[C@@H]2O[C@H](C)C[C@H](N(C)C)[C@H]2O)[C@](C)(O)C[C@@H](C)/C(=N\\OCOCCOC)[C@H](C)[C@@H](O)[C@]1(C)O", "note": "[roxithromycin, Roxithromycin]", "values": [{"measurement": "hair elongation", "setting": "human hair follicles", "value": "caused hair elongation"}, {"measurement": "follicle's passage to the catagen phase", "setting": "human hair follicles; through inhibition of keratinocyte apoptosis", "value": "inhibit the follicle's passage to the catagen phase"}, {"measurement": "local or systemic side effects or undesirable action", "setting": "[1]", "value": "no local or systemic side effects or undesirable action was recorded"}, {"measurement": "thickening of the hair", "setting": "[1]", "value": "Substantial thickening of the hair"}, {"measurement": "restored hair growth", "setting": "[1]; patients with androgenic hair loss", "value": "more than half of the patient population"}]}]}
